These results are taken from ChEMBL document CHEMBL3046801, “Synthesis of 2-R1-2-(4-(2-fluoroethoxy)benzamido)acetate as potential PET imaging agents” (Med Chem Res, 2012).

For data set [1], the system named is Kidney. As to the kind of experiment: Biodistribution in tumor bearing Mus musculus KM (mouse) kidney at 3.7 MBq, iv measured at 30 min by microPET imaging analysis. The format is ADME, organism-based. Particulars: in vivo, 0.5 h.
Data set [2] relates to Brain. The data set can be described thus: Biodistribution in tumor bearing Mus musculus KM (mouse) brain at 3.7 MBq, iv measured at 30 min by microPET imaging analysis. The format is ADME, organism-based. The settings on record: in vivo, 0.5 h.
Data set [3] concerns Heart. As to the kind of experiment: Biodistribution in tumor bearing Mus musculus KM (mouse) heart at 3.7 MBq, iv measured at 60 min by microPET imaging analysis. The format is ADME, organism-based. Particulars: in vivo, 1 h.
Data set [4] has as its system Tumour. As to the kind of experiment: Biodistribution in tumor of Mus musculus KM (mouse) at 3.7 MBq, iv measured at 15 min by microPET imaging analysis. The settings on record: in vivo, 0.25 h. The format is ADME, organism-based, Neoplasm.
A short description of data set [5]: Metabolic stability in serum after 1 hr by HPLC analysis. It is filed as ADME.
For data set [6], the system named is Liver. The data set can be described thus: Biodistribution in tumor bearing Mus musculus KM (mouse) liver at 3.7 MBq, iv by microPET imaging analysis. The settings on record: in vivo, TDE = time-dependent effect. The format is ADME, organism-based.
Data set [7] deals with Heart. The data set can be described thus: Biodistribution in tumor bearing Mus musculus KM (mouse) heart at 3.7 MBq, iv measured at 15 min by microPET imaging analysis. The format is ADME, organism-based. Particulars: in vivo, 0.25 h.
Data set [8] has as its system Liver. As to the kind of experiment: Biodistribution in tumor bearing Mus musculus KM (mouse) liver at 3.7 MBq, iv measured at 30 min by microPET imaging analysis. The format is ADME, organism-based. The settings on record: in vivo, 0.5 h.
The subject of data set [9] is Heart. As to the kind of experiment: Biodistribution in tumor bearing Mus musculus KM (mouse) heart at 3.7 MBq, iv measured at 30 min by microPET imaging analysis. It is filed as ADME, organism-based. Particulars: in vivo, 0.5 h.
Data set [10] relates to Lung. As to the kind of experiment: Biodistribution in tumor bearing Mus musculus KM (mouse) lung at 3.7 MBq, iv measured at 5 min by microPET imaging analysis. The format is ADME, organism-based. The settings on record: in vivo.
In data set [11] the test system is Nucleic Acid. The data set can be described thus: Ratio of drug uptake in tumor to muscle in Mus musculus KM (mouse) at 3.7 MBq, iv at 30 min. The format is ADME, organism-based. The settings on record: in vivo, 0.5 h.
Data set [12] concerns Brain. As to the kind of experiment: Biodistribution in tumor bearing Mus musculus KM (mouse) brain at 3.7 MBq, iv measured at 15 min by microPET imaging analysis. The format is ADME, organism-based. The settings on record: in vivo, 0.25 h.
The subject of data set [13] is Brain. As to the kind of experiment: Biodistribution in tumor bearing Mus musculus KM (mouse) brain at 3.7 MBq, iv by microPET imaging analysis. It is filed as ADME, organism-based. The settings on record: in vivo, TDE = time-dependent effect.
The subject of data set [14] is Lung. The data set can be described thus: Biodistribution in tumor bearing Mus musculus KM (mouse) lung at 3.7 MBq, iv measured at 120 min by microPET imaging analysis. It is filed as ADME, organism-based. The settings on record: in vivo, 2 h.
Data set [15] deals with Spleen. The data set can be described thus: Biodistribution in tumor bearing Mus musculus KM (mouse) spleen at 3.7 MBq, iv measured at 30 min by microPET imaging analysis. It is filed as ADME, organism-based. The settings on record: in vivo, 0.5 h.
Data set [16] has as its system Nucleic Acid. As to the kind of experiment: Ratio of drug uptake in tumor to muscle in Mus musculus KM (mouse) at 3.7 MBq, iv at 60 min. The format is ADME, organism-based. The settings on record: in vivo, 1 h.
Data set [17] deals with Tumour. The data set can be described thus: Biodistribution in tumor of Mus musculus KM (mouse) at 3.7 MBq, iv measured at 30 min by microPET imaging analysis. It is filed as ADME, organism-based, Neoplasm. The settings on record: in vivo, 0.5 h.
Data set [18] is described as follows: Octanol-PBS partition coefficient of the compound at pH 7.4 by gamma counter. The format is physicochemical. The settings on record: read-out: log KOW.
Data set [19] relates to Kidney. As to the kind of experiment: Biodistribution in tumor bearing Mus musculus KM (mouse) kidney at 3.7 MBq, iv measured at 15 min by microPET imaging analysis. The format is ADME, organism-based. Particulars: in vivo, 0.25 h.
Data set [20] concerns Kidney. The data set can be described thus: Biodistribution in tumor bearing Mus musculus KM (mouse) kidney at 3.7 MBq, iv by microPET imaging analysis. It is filed as ADME, organism-based. The settings on record: in vivo, TDE = time-dependent effect.
Another data set has as its system Blood. The data set can be described thus: Biodistribution in tumor bearing Mus musculus KM (mouse) blood at 3.7 MBq, iv measured at 15 min by microPET imaging analysis. The format is ADME, organism-based. The settings on record: in vivo, 0.25 h.
Data set [21] has as its system Spleen. As to the kind of experiment: Biodistribution in tumor bearing Mus musculus KM (mouse) spleen at 3.7 MBq, iv measured at 5 min by microPET imaging analysis. It is filed as ADME, organism-based. The settings on record: in vivo.

As to `COC(=O)CNC(=O)c1ccc(OCC[18F])cc1` [[18F]FEBA], the Drug uptake with Kidney [1] is listed as 1.77 % ID/g; with Brain [2], 0.51 % ID/g; with Heart [3], 0.91 % ID/g; in the data set with Tumour [4] it was 2.3 % ID/g; with Liver [6] it was “tde”; with Heart [7], 1.93 % ID/g. Also, the Drug uptake in the data set on Liver [8] is listed as 1.08 % ID/g; in the data set with Heart [9], 0.95 % ID/g; in the data set with Lung [10] it was 5.09 % ID/g; in the data set with Brain [12] it was 1.26 % ID/g; with Brain [13], “tde”; in the data set on Lung [14] it was 0.76 % ID/g. For the same molecule, the Drug uptake in the data set on Spleen [15] is 0.79 % ID/g; with Tumour [17], 1.71 % ID/g; with Kidney [19], 4.07 % ID/g; in the data set with Kidney [20] it was “tde”; in the data set with Blood, 2.17 % ID/g; with Spleen [21] it was 2.04 % ID/g. Also, the Stability result in data set [5] is reported as “Stable”. Further, the Ratio in the data set on Nucleic Acid [11] was determined as 1.82; in the data set on Nucleic Acid [16], 2.8. The logD in data set [18] was 0.57.
